Data reported in patent publication US8598413B2, “AAD-1 event DAS-40278-9, related transgenic corn lines, event-specific identification thereof, and methods of weed control involving AAD-1” (Dow AgroSciecnes, LLC., priority 2009, dated 2013).

Assays:
[1] = test system: hybrid corn containing pDAS1740-278; experiment: Field tolerance to preemergence applications of 2,4-D (Example 13, Table 31); type: in vivo; details: PRE (0-2 days after planting), evaluated 16-21 days after application, pDAS1740-278 Hybrid
Procedure: (§1) Transgenic hybrid corn (pDAS1740-278) containing the aad-1 gene which encodes the aryloxyalkanoate dioxygenase (AAD-1) protein was evaluated for tolerance to preemergence applications of 2,4-D in the field. Trials were conducted at multiple locations in Mississippi, Indiana, and Minnesota using a randomized complete block design with three replications of two row plots, approximately 6 m in length, at each site. Herbicide-treated plots were paired with untreated plots to provide accurate evaluation of emergence and early season growth. Herbicide treatments of 1120, 2240, and 4480 g ae/ha of 2,4-D amine were applied shortly after planting but before crop emergence (0-2 days after planting). Soil and precipitation information for these trials is contained in Table 30.

[2] = test system: conventional control hybrid; experiment: as above; type: in vivo, corn; details: PRE (0-2 days after planting), evaluated 16-21 days after application
Procedure: as §1

[3] = test system: hybrid corn containing the aad-1 gene; experiment: 2,4-D amine applied 7, 15 or 30 days preplanting, corn (Example 13); type: in vivo; details: 1120, 2240, 4480 g ae/ha at 7, 15 or 30 days preplanting
Description: Preemergence applications of 2,4-D amine are applied at rates of 1120, 2240, 4480 g ae/ha at 7 days, 15 days, or 30 days preplanting to hybrid corn containing the aad-1 gene and conventional control hybrids. The preemergence applications are applied using art recognized procedures to field plots which are located at geographically distinct locales. Herbicide-treated plots are paired with untreated plots to provide accurate evaluation of emergence and early season growth. Approximately 16-21 days after planting and 2,4-D applications at 7, 15 or 30 days preplanting; injury of the conventional control hybrids and hybrid corn containing aad-1 are measured.

[4] = test system: transgenic cotton containing the aad-1 gene; experiment: Field tolerance of aad-1 cotton to preemergence applications of 2,4-D (Example 13); type: in vivo
Procedure: Transgenic cotton containing the aad-1 gene which encodes the aryloxyalkanoate dioxygenase (AAD-1) protein was evaluated for tolerance to preemergence applications of 2,4-D in the field. Trials consisted of three replications and were conducted at multiple locations in Mississippi, Georgia, Tennessee, and Arkansas. A randomized complete block design of a single row separated by a guard row, approximately 10 feet (20 feet for the Mississippi trial) in length was used. Seed was planted using 8 seed per foot, plants were then hand thinned to 3.5 plants/foot of row. Herbicide-treated plots were paired with untreated plots to provide accurate evaluation of emergence and early season growth. All plots received at least ½ inch of rain or irrigation water within 24 hours of application. Herbicide treatments of 560, 1120, 2240, and 4480 g ae/ha of 2,4-D amine (WEEDAR 64, Nufarm, Burr Ridge, Ill.) were applied shortly after planting but before crop emergence. Soil and precipitation information for these trials is contained in Table 32.

[5] = preemergence 560, 1120, 2240 and 4480 gm ae/ha

In the case of `O=C(O)COc1ccc(Cl)cc1Cl` [2,4-D, 2,4-dichlorophenoxyacetic acid], the “Percent Plant Injury” value ([1]; 1120 g ae/ha) is reported as 3%, the “Percent Plant Injury” value ([1]; 2240 g ae/ha) is reported as 4% and the “Percent Plant Injury” value ([1]; 4480 g ae/ha) is reported as 9%. The “Percent Plant Injury” value ([2]; 1120 g ae/ha) was 12%, the “Percent Plant Injury” value ([2]; 2240 g ae/ha) was 16% and the “Percent Plant Injury” value ([2]; 4480 g ae/ha) was 31%. For the same compound, the “tolerance of preemergence treatments” value [3] was “robust tolerance”, the Chlorosis ([4]; 560, 1120, 2240 and 4480 gm ae/ha, remainder of the season) was “not detected” and the Injury ([4]; 560 and 1120 gm ae/ha) was “not significantly different from the untreated control plot”. For the same compound, the growth inhibition ([4]; 560 and 1120 gm ae/ha, 7 to 8, 11 to 14, 27 to 30 and 52 to 57 days after application) was “less than 2%”, the Chlorosis ([4]; 560 and 1120 gm ae/ha, 7 to 8 days after application) was “not detected” and the stand reduction ([4]; 560 gm ae/ha, 7 to 8 days after planting and preemergence application) was 3%. The stand reduction ([4]; 560 gm ae/ha, 11 to 14 days after planting and application) was 5%, the stand reduction ([4]; 1120 gm ae/ha, 7 to 8 days after planting and preemergence application) was “no reduction” and the stand reduction ([4]; 1120 gm ae/ha, 11 to 14 days after planting and application) was 2%. For the same compound, the “Chlorosis, visual rating” value ([4]; 2240 and 4480 gm ae/ha, 7-8 days after application) was less than 5%, the growth inhibition ([4]; 2240 gm ae/ha) was less than 10% and the stand reduction ([4]; 2240 gm ae/ha, 7 to 8 days after planting and preemergence application) was 19%. For the same compound, the stand reduction ([4]; 2240 gm ae/ha, 11 to 14 days after planting and application) was 14%, the growth inhibition ([4]; 4480 gm ae/ha, 7 to 8 days after application) was 27% and the stand reduction ([4]; 4480 gm ae/ha, 7 to 8 days after planting and preemergence application) was 34%. The growth inhibition ([4]; 4480 gm ae/ha, 11 to 14 days after application) was 28%, the stand reduction ([4]; 4480 gm ae/ha, 11 to 14 days after planting and application) was 25% and the growth inhibition ([4]; 4480 gm ae/ha, 27 to 30 days after application) was 17%. For the same compound, the growth inhibition ([4]; 4480 gm ae/ha, 52 to 57 days after application) was 8.3%, the “Differences in plant height, fruiting pattern, and yield” value [4, 5] was “not detected” and the epinasty [4, 5] was “did not cause epinasty”. For the same compound, the “effect on plant stands” value ([4]; preemergence 560, 1120 and 2240 gm ae/ha, compared to untreated plot) was “did not significantly affect plant stands”.
